{
  "source": "paper PMC9712021",
  "about": "(Advances in Pharmacological and Pharmaceutical Sciences, 2022)",
  "key": {"[1]": {"tested_on": "S. cerevisiae EG (Sod1∆Cat1∆)", "test": "S. cerevisiae central disc test, oxidative damage, strain Sod1∆Cat1∆", "assay_type": "cell-based, Saccharomyces cerevisiae", "excerpt": "(§1) The central disc test was done according to the method presented by Islam et al.. Superoxide dismutase (CuZnSOD-Sod1) is a cytosolic enzyme that is faulty in strain EG118, whereas mitochondrial SOD is faulty in strain EG110 (MnSOD-Sod2). The strain EG133 has both Sod1 and Sod2 defects, while EG223 has a cytosolic catalase deficiency (Cat1). While EG103 is a competent strain that is identical to the wild-type (SODWT), EG is a dual isogenic strain for the Sod1 and Cat1 genes."}, "[2]": {"tested_on": "S. cerevisiae EG118 (Sod1∆)", "test": "S. cerevisiae central disc test, oxidative damage, strain Sod1∆", "assay_type": "cell-based, Saccharomyces cerevisiae", "excerpt": "as §1"}, "[3]": {"tested_on": "S. cerevisiae EG110 (Sod2∆)", "test": "S. cerevisiae central disc test, oxidative damage, strain Sod2∆", "assay_type": "cell-based, Saccharomyces cerevisiae", "excerpt": "as §1"}, "[4]": {"tested_on": "S. cerevisiae EG103 (SODWT)", "test": "S. cerevisiae central disc test, oxidative damage, strain SODWT", "assay_type": "cell-based, Saccharomyces cerevisiae", "excerpt": "as §1"}, "[5]": {"tested_on": "S. cerevisiae strains (SODWT, Sod1Δ, Sod2Δ, Cat1Δ, Sod1/Sod2Δ, Cat1Δ/Sod1Δ)", "test": "In vivo antioxidant (S. cerevisiae) test, all strains tested", "assay_type": "cell-based, Saccharomyces cerevisiae", "excerpt": "as §1"}, "[6]": {"test": "Hemolytic activity in mice erythrocytes", "assay_type": "cell-based, Mus musculus", "settings": "male, Swiss albino, mouse, mouse erythrocyte suspension, 37°C, 2 h", "method": "(§2) This test was performed on adult Swiss albino mouse (Mus musculus) erythrocytes. The mouse was collected from the Central Animal House of the Federal University of Piaui, Brazil. It was allowed free access to standard food and water ad libitum and was kept under controlled lighting (12 h dark/light cycles) at 24 ± 2°C. Blood was collected from the retro-orbital plexus of the mouse (male, 24 gm body weight). Hemolytic activity in mouse erythrocytes was performed, according to Jamialahmadi et al.."}, "[7]": {"tested_on": "mouse erythrocytes", "test": "Hemolytic activity in mice erythrocytes", "assay_type": "cell-based", "settings": "for Hemolysis (%): 37°C, 2 h", "method": "as §2"}, "[8]": {"tested_on": "S. cerevisiae EG133 (Sod1∆Sod2∆)", "test": "S. cerevisiae central disc test, oxidative damage, strain Sod1∆Sod2∆", "assay_type": "cell-based, Saccharomyces cerevisiae", "excerpt": "as §1"}, "[9]": {"tested_on": "Artemia salina", "test": "Artemia salina bioassay (brine shrimp lethality bioassay)", "method": "This test was carried out with a slight modification, as described by Amaral et al.. Briefly, shrimp cysts were incubated in a small aquarium containing a brine solution (50 mg of cysts and 300 mL of brine) for 48 h with direct lighting. […] […] In the negative (NC) and positive (PC) control groups, saline solution and potassium dichromate (K2Cr2O7) were added, respectively. The concentration range used in the case of the PC group was 31.25 to 500 μg/mL."}, "[10]": {"tested_on": "S. cerevisiae EG223 (Cat1∆)", "test": "S. cerevisiae central disc test, oxidative damage, strain Cat1∆", "assay_type": "cell-based, Saccharomyces cerevisiae", "excerpt": "as §1"}},
  "data": [
    {"compound": "CC(C)=CCC/C(C)=C\\CO", "note": "[Nerol, cis-3,7-dimethyl-2,6-octadien-1]", "values": [
      {"measurement": "oxidative damage", "setting": "[1]; 0.9 μg/mL", "result": "2.50 ± 2.10"},
      {"measurement": "oxidative damage", "setting": "[1]; 1.8 μg/mL", "result": "2.50 ± 0.70"},
      {"measurement": "oxidative damage", "setting": "[1]; 7.2 μg/mL", "result": "3.00 ± 1.41"},
      {"measurement": "oxidative damage", "setting": "[1]; 14.4 μg/mL", "result": "3.00 ± 1.41"},
      {"measurement": "oxidative damage", "setting": "[1]; 32 μg/mL", "result": "3.50 ± 0.70"},
      {"measurement": "oxidative damage", "setting": "[1]; 64 μg/mL", "result": "3.00 ± 1.41"},
      {"measurement": "oxidative damage", "setting": "[1]; 128 μg/mL", "result": "2.50 ± 0.70"},
      {"measurement": "oxidative damage", "setting": "[1]; 256 μg/mL", "result": "3.00 ± 1.41"},
      {"measurement": "oxidative damage", "setting": "[1]; 3.6 mg/mL", "result": "3.00 ± 1.41"},
      {"measurement": "oxidative damage", "setting": "[1]; 500 mg/mL", "result": "2.50 ± 0.70"},
      {"measurement": "oxidative damage", "setting": "[2]; 0.9 μg/mL", "result": "1.50 ± 0.70"},
      {"measurement": "oxidative damage", "setting": "[2]; 1.8 μg/mL", "result": "2.00 ± 1.41"},
      {"measurement": "oxidative damage", "setting": "[2]; 7.2 μg/mL", "result": "3.00 ± 1.41"},
      {"measurement": "oxidative damage", "setting": "[2]; 14.4 μg/mL", "result": "2.50 ± 0.70"},
      {"measurement": "oxidative damage", "setting": "[2]; 32 μg/mL", "result": "3.50 ± 0.70"},
      {"measurement": "oxidative damage", "setting": "[2]; 64 μg/mL", "result": "1.50 ± 0.70"},
      {"measurement": "oxidative damage", "setting": "[2]; 128 μg/mL", "result": "2.00 ± 1.41"},
      {"measurement": "oxidative damage", "setting": "[2]; 3.6 mg/mL", "result": "2.50 ± 0.70"},
      {"measurement": "oxidative damage", "setting": "[2]; 256 mg/mL", "result": "2.50 ± 0.70"},
      {"measurement": "oxidative damage", "setting": "[2]; 500 mg/mL", "result": "2.00 ± 0.24"},
      {"measurement": "oxidative damage", "setting": "[3]; 0.9 μg/mL", "result": "1.00 ± 0.28"},
      {"measurement": "oxidative damage", "setting": "[3]; 1.8 μg/mL", "result": "3.00 ± 1.41"},
      {"measurement": "oxidative damage", "setting": "[3]; 7.2 μg/mL", "result": "3.00 ± 1.41"},
      {"measurement": "oxidative damage", "setting": "[3]; 14.4 μg/mL", "result": "3.00 ± 1.41"},
      {"measurement": "oxidative damage", "setting": "[3]; 32 μg/mL", "result": "1.50 ± 0.70"},
      {"measurement": "oxidative damage", "setting": "[3]; 64 μg/mL", "result": "2.50 ± 0.70"},
      {"measurement": "oxidative damage", "setting": "[3]; 128 μg/mL", "result": "2.50 ± 0.70"},
      {"measurement": "oxidative damage", "setting": "[3]; 3.6 mg/mL", "result": "2.50 ± 0.70"},
      {"measurement": "oxidative damage", "setting": "[3]; 256 mg/mL", "result": "2.00 ± 1.41"},
      {"measurement": "oxidative damage", "setting": "[3]; 500 mg/mL", "result": "2.00 ± 0.24"},
      {"measurement": "oxidative damage", "setting": "[4]; 0.9 μg/mL", "result": "1.50 ± 0.70"},
      {"measurement": "oxidative damage", "setting": "[4]; 1.8 μg/mL", "result": "1.50 ± 0.70"},
      {"measurement": "oxidative damage", "setting": "[4]; 7.2 μg/mL", "result": "2.00 ± 1.41"},
      {"measurement": "oxidative damage", "setting": "[4]; 14.4 μg/mL", "result": "2.50 ± 0.70"},
      {"measurement": "oxidative damage", "setting": "[4]; 32 μg/mL", "result": "2.00 ± 1.41"},
      {"measurement": "oxidative damage", "setting": "[4]; 64 μg/mL", "result": "2.00 ± 1.41"},
      {"measurement": "oxidative damage", "setting": "[4]; 128 μg/mL", "result": "1.00 ± 0.28"},
      {"measurement": "oxidative damage", "setting": "[4]; 3.6 mg/mL", "result": "1.00 ± 0.28"},
      {"measurement": "oxidative damage", "setting": "[4]; 256 mg/mL", "result": "2.00 ± 0.24"},
      {"measurement": "oxidative damage", "setting": "[4]; 500 mg/mL", "result": "1.00 ± 0.28"},
      {"measurement": "percentage modulation of oxidative damage caused by the stressor H2O2", "setting": "[5]; all strains and concentrations tested", "result": "more than 60%"},
      {"measurement": "induction of oxidative damage", "setting": "[5]; any concentration, any of the tested S. cerevisiae strains", "result": "did not induce oxidative damage"},
      {"measurement": "hemolysis at 2 h, 31.25 μg/mL", "setting": "[6]; pH 7.4, 31.25 μg/mL", "result": "2.67 ± 0.35", "unit": "%"},
      {"measurement": "hemolysis at 2 h, 62.5 μg/mL", "setting": "[6]; pH 7.4, 62.5 μg/mL", "result": "4.49 ± 0.26", "unit": "%"},
      {"measurement": "hemolysis at 2 h, 125 μg/mL", "setting": "[6]; pH 7.4, 125 μg/mL", "result": "5.12 ± 1.05", "unit": "%"},
      {"measurement": "hemolysis at 2 h, 250 μg/mL", "setting": "[6]; pH 7.4, 250 μg/mL", "result": "6.54 ± 1.78", "unit": "%"},
      {"measurement": "hemolysis at 2 h, 500 μg/mL", "setting": "[6]; pH 7.4, 500 μg/mL", "result": 39.1, "unit": "%"},
      {"measurement": "Hemolysis (%)", "setting": "[7]; 500 μg/mL", "result": "34.95 ± 4.74^∗ %"},
      {"measurement": "cytotoxic effects in the hemolysis test", "setting": "[7]; 31.25–500 μg/mL", "result": "significant cytotoxic effects"},
      {"measurement": "oxidative damage", "setting": "[8]; 0.9 μg/mL", "result": "2.00 ± 1.41"},
      {"measurement": "oxidative damage", "setting": "[8]; 1.8 μg/mL", "result": "2.50 ± 0.70"},
      {"measurement": "oxidative damage", "setting": "[8]; 7.2 μg/mL", "result": "3.00 ± 1.41"},
      {"measurement": "oxidative damage", "setting": "[8]; 14.4 μg/mL", "result": "3.00 ± 0.54"},
      {"measurement": "oxidative damage", "setting": "[8]; 32 μg/mL", "result": "4.50 ± 0.70"},
      {"measurement": "oxidative damage", "setting": "[8]; 64 μg/mL", "result": "2.50 ± 0.70"},
      {"measurement": "oxidative damage", "setting": "[8]; 128 μg/mL", "result": "3.00 ± 1.41"},
      {"measurement": "oxidative damage", "setting": "[8]; 3.6 mg/mL", "result": "2.50 ± 0.70"},
      {"measurement": "oxidative damage", "setting": "[8]; 256 mg/mL", "result": "2.50 ± 0.70"},
      {"measurement": "oxidative damage", "setting": "[8]; 500 mg/mL", "result": "2.50 ± 0.70"},
      {"measurement": "Artemia Salina mortality", "setting": "[9]; 62.5 μg/mL, 48 h of exposure", "result": 100, "unit": "%"},
      {"measurement": "cytotoxic effects in the A. Salina test", "setting": "[9]; 31.25–500 μg/mL", "result": "significant cytotoxic effects"},
      {"measurement": "oxidative damage", "setting": "[10]; 0.9 μg/mL", "result": "1.50 ± 0.70"},
      {"measurement": "oxidative damage", "setting": "[10]; 1.8 μg/mL", "result": "2.50 ± 0.70"},
      {"measurement": "oxidative damage", "setting": "[10]; 7.2 μg/mL", "result": "2.50 ± 0.70"},
      {"measurement": "oxidative damage", "setting": "[10]; 14.4 μg/mL", "result": "3.00 ± 0.54"},
      {"measurement": "oxidative damage", "setting": "[10]; 32 μg/mL", "result": "3.50 ± 0.70"},
      {"measurement": "oxidative damage", "setting": "[10]; 64 μg/mL", "result": "3.00 ± 1.41"},
      {"measurement": "oxidative damage", "setting": "[10]; 128 μg/mL", "result": "3.00 ± 1.41"},
      {"measurement": "oxidative damage", "setting": "[10]; 3.6 mg/mL", "result": "4.00 ± 1.2"},
      {"measurement": "oxidative damage", "setting": "[10]; 256 mg/mL", "result": "1.50 ± 0.70"},
      {"measurement": "oxidative damage", "setting": "[10]; 500 mg/mL", "result": "2.50 ± 0.70"}
    ]},
    {"compound": "Triton X-100 [reference compound]", "values": [
      {"measurement": "Hemolysis (%)", "setting": "[7]; 31.25 μg/mL", "result": "100 ± 0.00^∗ %"},
      {"measurement": "Hemolysis (%)", "setting": "[7]; 62.5 μg/mL", "result": "100 ± 0.00^∗ %"},
      {"measurement": "Hemolysis (%)", "setting": "[7]; 125 μg/mL", "result": "100 ± 0.00^∗ %"},
      {"measurement": "Hemolysis (%)", "setting": "[7]; 250 μg/mL", "result": "100 ± 0.00^∗ %"},
      {"measurement": "Hemolysis (%)", "setting": "[7]; 500 μg/mL", "result": "100 ± 0.00^∗ %"}
    ]}
  ]
}
